Measurements: PubChem BioAssay AID1159565 (GlaxoSmithKline (GSK), 2015)
The source made the active and inactive calls. How the calls were made is not given here.

Tested on: T. cruzi-infected H9C2 cardiomyocytes, high-content imaging
Assay: anti-T. cruzi activity in infected cardiomyocytes – imaging, H9C2 host cardiomyocytes, host toxicity (AID 1159565);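 further: infected cells incubated 72 h after plating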
[1] = measured here: H9C2 host cell toxicity
[2] = measured here: amastigotes per cell

| Compound | IC50 | IC50 [1] [nM] | IC50 [2] [nM] |
| --- | --- | --- | --- |
| Cc1occc1C(=O)Nc1ccccc1C(=O)Nc1nccs1 | > 50000 nM (inactive) | > 50000 | 32000 |
| Cc1nc2c(-c3cccs3)c(C)nn2c(NCCO)c1C | 32000 nM | > 50000 | 16000 |
| CCCc1cc(C(=O)Nc2ncc(-c3cccc(Br)c3)n2C)n[nH]1 | 4000 nM | > 50000 | 2500 |
| CN(C)S(=O)(=O)c1ccc(-c2cnc(N)c(-c3nc4ccc(F)cc4[nH]3)c2)cc1 | > 50000 nM (inactive) | 1300 | > 50000 |
| COc1ccc(C(C)N(C)c2ncc3c(N)nc(N)nc3n2)cc1F (stereo not given) | 200 nM | 25000 | 63 |
| Fc1ccccc1N1C[C@H]2CCN(c3cccnc3)C[C@H]2C1 | 200 nM | > 50000 | 200 |
| Cn1ccnc1-c1nc(NCc2ccccc2Cl)cc(C2CC2)n1 | 790 nM | 630 | 790 |
| CCc1ccc2nc(NC(=O)c3cc(N4CCOCC4)ccn3)sc2c1 | 790 nM | 40000 | 500 |
| Cc1ccc(S(=O)(=O)Nc2ccc(CN3CCN(C(=O)c4cccc(C#N)c4)CC3)cc2)cc1 | 500 nM | > 50000 | 400 |
| CC(C)c1sc(Cl)nc1C(=O)NCCc1nc(C(=O)Nc2ccc3c(c2)OCO3)cs1 | 1000 nM | > 50000 | 630 |
| O=C(CN1CCN(c2ccccn2)CC1)Nc1cc(S(=O)(=O)N2CCCCCC2)ccc1Cl | 7900 nM | > 50000 | 6300 |
| Clc1ccc(C(CC2CCCCO2)Cn2cncn2)c(Cl)c1 (stereo not given) | 1300 nM | > 50000 | 1000 |
| O=[N+]([O-])c1ccc(C2=CC(c3ccccc3)=NCCN2)cc1 | 1000 nM | 32000 | 250 |
| CCN(Cc1cccs1)C(=O)CSc1nnc(-c2ccc3c(c2)OCO3)o1 | 2500 nM | > 50000 | 1600 |
| CC(C)(C)C(O)(CCc1ccc(Cl)cc1)Cn1cncn1 (stereo not given) | 250 nM | > 50000 | 200 |
| Cc1ccc(NC(C)C(=O)Nc2ccc(C#N)cc2)cc1S(=O)(=O)N1CCCCC1 (stereo not given) | 7900 nM | > 50000 | 7900 |
| c1ccc(-c2nc(NCc3ccco3)c3ccccc3n2)nc1 | 3200 nM | 2000 | 4000 |
| OC[C@@H](Nc1nccc(-c2c(-c3ccc(F)cc3)ncn2C2CCNCC2)n1)c1ccccc1 | 13000 nM | 2000 | 13000 |
| c1cc(-c2ncc(-c3ccn[nH]3)s2)ccn1 | 250 nM | > 50000 | 250 |
| COc1ccc(CN2C(=O)C(O)(CC(=O)c3ccncc3)c3cc(Br)ccc32)cc1OC (stereo not given) | 25000 nM | 2000 | 13000 |
| CCC1Oc2cc(S(=O)(=O)N(C)CC(=O)N3CCc4ccccc4C3)c(C)cc2NC1=O (stereo not given) | 250 nM | > 50000 | 250 |
| CCC(c1ccc(F)cc1)n1cncc1-c1cnn(C)c1 (stereo not given) | 320 nM | > 50000 | 320 |
| Cc1cnc(Nc2cc(Cc3ccccc3)nc(NC3CCC(O)CC3)n2)s1 (stereo not given) | 130 nM | 32 | 50 |
| COc1cccc(CN(C)Cc2nc(N)c3c(C)c(C)sc3n2)c1 | 16000 nM | > 50000 | 16000 |

| Compound | IC50 | IC50 [1] [nM] | IC50 [2] [nM] |
| --- | --- | --- | --- |
| O=C(Cc1ccccc1)Nc1[nH]nc2sc(C(=O)NC3CCCC3)cc12 | 13000 nM | 1300 | 6300 |
| CCOc1ccccc1C(=O)Nc1nnc(-c2ccc3c(c2)OCO3)s1 | 79 nM | > 50000 | 63 |
| Cc1ccc(C)c(CN2C(=O)NC3(CCc4ccccc43)C2=O)c1 (stereo not given) | 20000 nM | > 50000 | 7900 |
| CN(CC1CCCO1)S(=O)(=O)c1ccc(C(=O)Nc2nc(-c3ccccn3)cs2)cc1 (stereo not given) | 2000 nM | 20000 | 1300 |
| COc1ccccc1C=CCN1C[C@H]2CCC[C@@H](C1)C2(O)c1cccnc1 (stereo not given in full) | 40 nM | > 50000 | 40 |
| Cc1ccc(CNC2CCN(C[C@@H]3Cn4c(=O)ccc5ccc(=O)n3c54)CC2)cc1F | 1300 nM | > 50000 | 1000 |
| N#Cc1cccc(CN2CCC(N(Cc3cccnc3)C(=O)c3cc(F)c(F)cc3F)CC2)c1 | 400 nM | > 50000 | 320 |
| Cc1nc(C(=O)Nc2ccc3c(c2)OCO3)nn1-c1ccc(F)cc1 | 1300 nM | > 50000 | 1000 |
| CC(=O)Nc1cccc(Nc2ncnc3nc[nH]c23)c1 | 40000 nM | > 50000 | 25000 |
| O=c1ccc2ccc(F)c3c2n1C[C@H]3CN1CCC(NCc2cc3ccccc3o2)CC1 | 200 nM | 32000 | 130 |
| COc1ncc(-c2ccc3ncnc(N4CCOCC4)c3c2)cc1NS(C)(=O)=O | 6300 nM | 1600 | 2500 |
| COc1ccccc1C1CC(c2ccc(NS(C)(=O)=O)cc2)=NN1C(=O)c1cccs1 (stereo not given) | > 50000 nM (inactive) | > 50000 | > 50000 |
| O=C(Cc1ccccc1)Nc1ccccc1C(=O)Nc1nccs1 | > 50000 nM (inactive) | > 50000 | > 50000 |
| O=S1N=C(NCCCN(Cc2ccc(F)cc2)c2ccccn2)C(NCc2ccncc2)=N1 (stereo not given) | 50000 nM | > 50000 | 40000 |
| CS(=O)(=O)NC1CCC(Oc2cc3cnccc3cc2-c2ccsc2)CC1 (stereo not given) | 160 nM | > 50000 | 100 |
| CC1(C)CCC(=Cc2ccc(Cl)cc2)CC1(O)Cn1ccnc1 (stereo not given) | 7.9 nM | 32000 | 5 |
| O=C1CN(C(=O)c2cccc(Nc3ncc(-c4ccc5c(c4)OCO5)cn3)c2)CCN1 | 790 nM | 63000 | 500 |
| Cn1ccnc1CN1CCc2[nH]cnc2C1c1ccccc1OCc1ccccc1 (stereo not given) | > 50000 nM (inactive) | > 50000 | > 50000 |
| Cc1nccn1C1CCCN(C(=O)c2cc3c(F)cccc3s2)C1 (stereo not given) | 1000 nM | > 50000 | 790 |
| CCOc1cnn(C)c(=O)c1Nc1ccc(C(=O)NCc2ccc(F)cc2)cc1 | 100 nM | > 50000 | 130 |
| O=C(Cn1cnc([N+](=O)[O-])n1)Nc1ccc(Cl)cc1C(=O)c1ccccc1 | 1300 nM | > 50000 | 320 |
| O=C(CN(Cc1ccccn1)Cc1ccccn1)NCc1ccc2c(c1)OCO2 | 13000 nM | > 79000 | 6300 |
| CC(C)C[C@H](NC(=O)c1ccc(-c2ccccc2)o1)C(=O)NC1(C#N)CC1 | > 50000 nM (inactive) | > 50000 | 25000 |
| CC(C)(C)C(Cn1ccnc1)NC(=O)c1ccc2nc(C3CC3)oc2c1 (stereo not given) | 100 nM | > 50000 | 79 |

| Compound | IC50 | IC50 [1] [nM] | IC50 [2] [nM] |
| --- | --- | --- | --- |
| Cc1nn(C)c(Cl)c1CN(Cc1cccnc1)Cc1ccsc1 | 320 nM | > 50000 | 320 |
| Cc1cc(Nc2cc(C3CC3)[nH]n2)nc(N2CCCC2)n1 | 100 nM | 250 | 79 |
| NC(=O)c1cc(F)ccc1Nc1nc(NC2CCC(O)CC2)ncc1Br (stereo not given) | 2000 nM | 500 | 790 |
| Cc1cc2cc(CNc3ccc4c(c3)OCO4)c(=O)n(CCO)c2cc1C | 250 nM | > 50000 | 200 |
| CC(C)(C)CC(=O)NCc1noc(COc2ccccc2)n1 | 2500 nM | > 50000 | 2500 |
| O=C(Nc1ccc(Br)cn1)c1ccc(Cn2cnc([N+](=O)[O-])n2)cc1 | 130 nM | > 50000 | 79 |
| Cc1ccc(-c2csc(NC(=O)C=Cc3ccc(S(=O)(=O)N4CCOCC4)cc3)n2)o1 | 10000 nM | 32000 | 10000 |
| Cc1nnnn1-c1cccc(C(=O)N2CCC[C@@]3(C)c4ncncc4CCC23)c1 (stereo not given in full) | 320 nM | > 50000 | 320 |
| Cc1cc(Br)cc(C(=O)c2c(C(C)C)c(=O)[nH]c(=O)n2Cc2ccnc(N)c2)c1 | 320 nM | > 50000 | 250 |
| O=C(Nc1ccc(-c2nc3ccccc3c(=O)[nH]2)cc1)c1cccs1 | > 50000 nM (inactive) | > 50000 | > 50000 |
| O=C1CN(Cc2ccco2)C2CS(=O)(=O)CC2N1c1ccc(Cl)cc1 (stereo not given) | > 50000 nM (inactive) | > 50000 | > 50000 |
| O=c1cc(NCCCNC2CCOc3c(I)cc(Cl)cc32)[nH]c2ccccc12 (stereo not given) | 320 nM | 25000 | 160 |
| Nc1nonc1-c1nc2cncc(C(=O)N3CC[C@H](N)C3)c2n1CC1CC1 | > 50000 nM (inactive) | > 50000 | 13000 |
| O=c1ccc2ccc(F)c3c2n1C[C@H]3CN1CCN(CC(O)c2cc3c(cn2)OCS3)CC1 (stereo not given in full) | 630 nM | > 50000 | 320 |
| COc1ccc(-c2cnc(NC(=O)c3cc(-c4ccccn4)n[nH]3)n2C)cc1 | 5000 nM | > 50000 | 4000 |
| CC(C)Oc1ccc(C(=O)Nc2ccc(N3CCOCC3)c(Cl)c2)cc1 | 1300 nM | > 50000 | 1300 |
| CS(=O)(=O)c1cccc(CNC(=O)c2cncc(N3CCN(c4ccc(F)cc4)CC3)c2)c1 | 400 nM | > 50000 | 250 |
| N#Cc1cccc(CNc2ccc(-c3cnn(CC4CC4)c(=O)c3C#N)cc2)c1 | 7900 nM | > 50000 | 5000 |
| CCCc1nc2nc(N)nc(N)c2cc1CC | 320 nM | 13000 | 79 |
| CC(C)n1c(-c2nonc2N)nc2cccc(OCCN3CCCC3)c21 | 16000 nM | 32000 | 25000 |
| COc1cccc(CCNC(=O)C(c2cn[nH]c2)N2CCN(c3ccc(Cl)cc3)CC2)c1 (stereo not given) | 20 nM | 40000 | 16 |
| CCS(=O)(=O)Nc1ccc(C2=NN(C(=O)c3cccs3)C(c3ccccc3OC)C2)cc1 (stereo not given) | > 50000 nM (inactive) | > 50000 | > 50000 |
